# Measurements: US8785594B2, “Glycoproteins and glycosylated cells and a method for the preparation of the same” (Glycom A/S, priority 2007, dated 2014)
# Key:
# Format in all cases: cell-based
# B16.BL6 melanoma cells [1] = experiment: Flow cytometry with FITC-labelled GS1B4 (Example 14)
# Protocol: (§1) Radioactive labelled and regular trisaccharide probe was dissolved in HBSS containing D-glucose (without Mg^2+ and Ca^2+) (Gibco Invitrogen, Taastrup, Denmark) and passed through sterile filters (0.2 μm Supor® Acrodisc® 13, Gelman Sciences, Ann Arbor, Mich.). Four different concentrations of each “Glycom conjugate” (25 mg, 5 mg, 1 mg and 0.1 mg) were made. Twelve flasks (150 cm^2) (TPP, Trasadingen Switzerland) were prepared each containing a total of 10×10^6 B16.BL6 cells. The trisaccharide probe was added and the total volume was adjusted to 20 mL with HBSS containing D-glucose (without Mg^2+ and Ca^2+). The cells were incubated with the “Glycom conjugate” for 1.5 hours at 37° C. After conjugation, the supernatant from each flask was transferred to separate 50 mL tubes (TPP, Trasadingen Switzerland). The cells were harvested with Cell Dissociation Solution C5914 (5 mL per flask) (Sigma-Aldrich, Saint Louis, Mo. and transferred to the 50 mL tubes containing the supernatant. The cells were centrifuged for 3 minutes at 300 G at 20° C. and resuspended in 5 mL of PBS (without Mg^2+ and Ca^2+). This was repeated 3 times before cell concentration and viability was determined by microscopical evaluation of trypan blue stained cell samples.
# Cells conjugated with regular trisaccharide probe were analysed by flow cytometry. Four hundred μl of each cell suspension containing 2×10^5 cells were incubated for 15 minutes at 4° C. with 10 μg per mL of FITC-labelled GS1B4. Mean fluorescence intensity of cells stained with GS1B4 was measured by flow cytometry.
# B16.BL6 melanoma cells [2] = experiment: Cell viability after 1 hour conjugation, trypan blue (Example 12); details: for Viability of cells harvested: 1 hour
# Protocol: The alpha-Gal trisaccharide-carbamate probe (9) was dissolved in both PBS (without Mg^2+ and Ca^2+) (Gibco Invitrogen, Taastrup, Denmark) and HBSS (with D-glucose) (Gibco Invitrogen, Taastrup, Denmark) and passed through sterile filters (Sartorius Minisart®, 0.20 my) (Sartorius, Goettingen, Germany). Three different concentrations of the trisaccharide probe were prepared in both PBS and HBSS.
# Eight small flasks (25 cm^2) (TPP, Trasadingen Switzerland) were prepared, each containing 10^6 B16.BL6 cells, and the trisaccharide probe was added. Total volume of the flasks was 4.6 mL. The cells were incubated with the conjugate for 1 hour at 37° C. and 5% CO2.
# After conjugation, the supernatant from each flask was transferred to separate 10 mL tubes (TPP, Trasadingen Switzerland). The cells were harvested with Cell Dissociation Solution (2 mL per flask) (Sigma-aldrich, Saint Louis, Mo.) and transferred to the 10 mL tubes. Cells were centrifuged for 5 minutes at 300 G at 20° C. and resuspended in 0.5 mL of PBS or HBSS. Cell concentration and viability was determined by microscopic evaluation of trypan blue stained cell samples.
# B16.BL6 melanoma cells [3] = experiment: Staining of cell smears with FITC-labelled GS1B4 (Example 11)
# Protocol: (§2) Five hundred mg of alpha-Gal trisaccharide-carbamate (9) was dissolved in PBS (without Mg^2+ and Ca^2+) (Gibco Invitrogen, Taastrup, Denmark) and passed through a sterile filter (Sartorius Minisart®, 0.20 my) (Sartorius, Goettingen, Germany). Eight different concentrations of conjugate were prepared. Two mL of each conjugate dilution was added to a flask with 2 mL of PBS (without Mg^2+ and Ca^2+) and 600 μl of cell suspension containing 10^6 B16.BL6 cells. The final volume of the flasks was 4.6 mL. The flasks were numbered 1 to 10. Flasks 1 and 10 contained no conjugate and served as controls. The cells were incubated with the conjugate for 3 hours and 25 minutes at 37° C. and 5% CO2.
# Smears of cells from conjugation reaction 1 (non-conjugated control cells), 2, 4, 6 and 8 were incubated for 1 hour at room temperature with FITC-labelled GS1B4 diluted 1:200 in TBS. After a rinse in TBS, one drop of Fluorescent Mounting Medium (DAKO) was placed on each of the cell specimens and glass coverslips were placed on top. Binding of FITC-labelled GS1B4 to Galα1,3Gal on conjugated cells was assessed by fluorescence microscopy.
# B16.BL6 melanoma cells [4] = experiment: Flow cytometry with FITC-labelled GS1B4 (Example 11)
# Protocol: as §2
# B16.BL6 cells from conjugation reaction 1 (non-conjugated cells), 2, 4, 6 and 8 were analysed by flow cytometry. One hundred μL of cell suspension containing 1×10^5 cells were incubated for 15 minutes at 4° C. with 10 μg per mL (1:100 dilution) of FITC-labelled GS1B4 in TBS containing 1% BSA. The proportion of cells stained, mean and median cell fluorescence intensity was determined by flow cytometry. Afterwards, cells were washed once in PBS and measurements were repeated. Rabbit red blood cells (RRBC) known to express ˜2×10^6 Galα1,3Gal epitopes per cell were used for comparison. The analyses of conjugated B16.BL6 cells and RRBCs were performed on different days.
# B16.BL6 melanoma cells [5] = experiment: Scintillation, estimation of epitopes per cell (Example 14)
# Protocol: as §1
# Cells conjugated with radioactive labelled trisaccharide probe were centrifuged for 5 minutes at 1000 G at 20° C. The supernatants were discharged and the remaining pellets were dried. Subsequently, the pellets were dissolved in 400 μl Mili-Q H2O and 1.5 mL of scintillation fluid was added. Standards for the scintillation were made by adding 500 pCi, 0.5 pCi and 0 pCi to the 3 samples of control cells. The samples were stored at room temperature for 3 days, before the cell suspensions were transferred to scintillation vials and counted.
# [6] = unwashed cells, reaction 2 (200 mg conjugate)
# [7] = unwashed cells, reaction 6 (10 mg conjugate)
# [8] = unwashed cells, reaction 8 (2 mg conjugate)
# [9] = washed cells, reaction 2 (200 mg conjugate)
# [10] = washed cells, reaction 6 (10 mg conjugate)
# [11] = washed cells, reaction 8 (2 mg conjugate)
smiles,measurement,setting,value
"O=C1N[C@@H]2O[C@H](CO)[C@@H](O[C@@H]3O[C@H](CO)[C@H](O)[C@H](O[C@H]4O[C@H](CO)[C@H](O)[C@H](O)[C@H]4O)[C@H]3O)[C@H](O)[C@H]2O1 [Compound 9, alpha-Gal trisaccharide-carbamate]",Cells marked with GS1B4,B16.BL6 melanoma cells [1]; 0.1 mg conjugate added,17.64%
same,Mean fluorescence intensity of cells marked with GS1B4,B16.BL6 melanoma cells [1]; 0.1 mg conjugate added,1025.86
same,Cells marked with GS1B4,B16.BL6 melanoma cells [1]; 1 mg conjugate added,2.36%
same,Mean fluorescence intensity of cells marked with GS1B4,B16.BL6 melanoma cells [1]; 1 mg conjugate added,342.05
same,Cells marked with GS1B4,B16.BL6 melanoma cells [1]; 5 mg conjugate added,14.56%
same,Mean fluorescence intensity of cells marked with GS1B4,B16.BL6 melanoma cells [1]; 5 mg conjugate added,1719.58
same,Cells marked with GS1B4,B16.BL6 melanoma cells [1]; 25 mg conjugate added,31.86%
same,Mean fluorescence intensity of cells marked with GS1B4,B16.BL6 melanoma cells [1]; 25 mg conjugate added,2460.67
same,Binding of FITC-labelled GS1B4 to conjugated cells,B16.BL6 melanoma cells [1]; 0.1-25 mg regular trisaccharide probe,only a fraction of the conjugated cells bound detectable amounts of FITC-labelled GS1B4
same,"Viability of cells after incubation, before harvest",B16.BL6 melanoma cells [2]; after the 1-hour incubation with the trisaccharide probe,most of the cells were viable
same,Viability of cells harvested,"B16.BL6 melanoma cells [2]; reaction HA, 16 mg, HBSS (with D-glucose)",33.3%
same,Viability of cells harvested,"B16.BL6 melanoma cells [2]; reaction HB, 2 mg, HBSS (with D-glucose)",41.7%
same,Viability of cells harvested,"B16.BL6 melanoma cells [2]; reaction HC, 1 mg, HBSS (with D-glucose)",41.6%
same,Viability of cells harvested,"B16.BL6 melanoma cells [2]; reaction PA, 16 mg, PBS",14.3%
same,Viability of cells harvested,"B16.BL6 melanoma cells [2]; reaction PB, 2 mg, PBS",32.0%
same,Viability of cells harvested,"B16.BL6 melanoma cells [2]; reaction PC, 1 mg, PBS",37.5%
same,Staining of cell membranes with FITC-labelled GS1B4,B16.BL6 melanoma cells [3]; conjugation reaction 2 (200 mg),heavily stained
same,"Galα1,3Gal epitopes detected by binding of FITC-labelled GS1B4 on cell smears","B16.BL6 melanoma cells [3]; conjugation reactions 2, 4, 6 and 8 (200, 50, 10, 2 mg)",found on cells from all conjugation reactions tested
same,"Galα1,3Gal epitopes detected by binding of FITC-labelled GS1B4, flow cytometry","B16.BL6 melanoma cells [4]; conjugation reactions 2, 6 and 8",found on B16.BL6 cells from all conjugation reactions tested
same,"Number of Galα1,3Gal-epitopes on the conjugated cells","B16.BL6 melanoma cells [4]; from fluorescence intensity, compared with rabbit red blood cells","> 2×10^6 Galα1,3Gal epitopes"
same,Cells marked with FITC-GS1B4,B16.BL6 melanoma cells [4]; reaction 2 (200 mg conjugate),95.82%
same,Cells marked with FITC-GS1B4,"B16.BL6 melanoma cells [4]; reaction 6, 10 mg conjugate",62.17%
same,Cells marked with FITC-GS1B4,"B16.BL6 melanoma cells [4]; reaction 8, 2 mg conjugate",56.82%
same,Mean fluorescence intensity,B16.BL6 melanoma cells [4]; [6],726.72
same,Median fluorescence intensity,B16.BL6 melanoma cells [4]; [6],523.30
same,Mean fluorescence intensity,B16.BL6 melanoma cells [4]; [7],862.24
same,Median fluorescence intensity,B16.BL6 melanoma cells [4]; [7],798.63
same,Mean fluorescence intensity,B16.BL6 melanoma cells [4]; [8],594.99
same,Median fluorescence intensity,B16.BL6 melanoma cells [4]; [8],572.55
same,Mean fluorescence intensity,B16.BL6 melanoma cells [4]; [9],447.48
same,Median fluorescence intensity,B16.BL6 melanoma cells [4]; [9],321.97
same,Mean fluorescence intensity,B16.BL6 melanoma cells [4]; [10],439.04
same,Median fluorescence intensity,B16.BL6 melanoma cells [4]; [10],406.79
same,Mean fluorescence intensity,B16.BL6 melanoma cells [4]; [11],264.30
same,Median fluorescence intensity,B16.BL6 melanoma cells [4]; [11],259.45
O=[13C]1N[C@@H]2O[C@H](CO)[C@@H](O[C@@H]3O[C@H](CO)[C@H](O)[C@H](O[C@H]4O[C@H](CO)[C@H](O)[C@H](O)[C@H]4O)[C@H]3O)[C@H](O)[C@H]2O1 [radioactive labelled conjugate],Epitopes per cell,B16.BL6 melanoma cells [5]; 0.1 mg conjugate added,3.6 × 10^6
same,Epitopes per cell,B16.BL6 melanoma cells [5]; 1 mg conjugate added,28.3 × 10^6
same,Epitopes per cell,"B16.BL6 melanoma cells [5]; 5 mg conjugate added, cells from supernatant only",152.4 × 10^6
same,Epitopes per cell,"B16.BL6 melanoma cells [5]; 25 mg conjugate added, attached cells only",364.2 × 10^6
same,Relation of scintillation counts to dose of conjugate,B16.BL6 melanoma cells [5]; 0.1-25 mg,positive correlation
